Consider 19 compounds from ChEMBL document CHEMBL1145159 (J Med Chem, 2005).

In test [1] the target is T1, Neuronal acetylcholine receptor; alpha3/beta4 (Homo sapiens, UniProt P30926+P32297). Kind of test: Inhibitory concentration against Nicotinic acetylcholine receptor alpha3-beta4. Type of test: protein-complex assay.
Test [2] concerns the target Neuronal acetylcholine receptor; alpha4/beta4 (Homo sapiens, UniProt P30926+P43681). Put plainly: Maximal response against Nicotinic acetylcholine receptor alpha4-beta4. Type of test: protein-complex assay.
The target of test [3] is T1, Neuronal acetylcholine receptor; alpha3/beta4. Put plainly: Maximal response against Nicotinic acetylcholine receptor alpha3-beta4. Type of test: protein-complex assay.
Test [4] has as its target Neuronal acetylcholine receptor; alpha4/beta2 (Homo sapiens, UniProt P17787+P43681). Kind of test: Maximal response against Nicotinic acetylcholine receptor alpha4-beta2. It counts as protein-complex assay.
Test [5] has as its target Neuronal acetylcholine receptor subunit alpha-7 (Rattus norvegicus) (UniProt Q05941). Put plainly: Maximal response against Nicotinic acetylcholine receptor alpha 7.
Test [6] has as its target T2, Neuronal acetylcholine receptor subunit alpha-7 (Homo sapiens, UniProt P36544). Put plainly: Inhibitory concentration against Nicotinic acetylcholine receptor alpha 7.
Test [7] addresses Neuronal acetylcholine receptor; alpha3/beta2 (Homo sapiens, UniProt P17787+P32297). Kind of test: Inhibitory concentration against Nicotinic acetylcholine receptor alpha3-beta2. Type of test: protein-complex assay.
The target of test [8] is Neuronal acetylcholine receptor; alpha2/beta4 (Homo sapiens, UniProt P30926+Q15822). Put plainly: Maximal response against Nicotinic acetylcholine receptor alpha2-beta4. It counts as protein-complex assay.
Test [9] concerns the target T2, Neuronal acetylcholine receptor subunit alpha-7. Kind of test: Effective concentration against Nicotinic acetylcholine receptor alpha 7.

“And” between values parts separate entries of the source, which are not always exact repeats. Equal values may be shown once. Peptide text beside a SMILES is read from it.

Neuronal acetylcholine receptor subunit alpha-7 (Rattus norvegicus), sequence (Q05941 whole entry): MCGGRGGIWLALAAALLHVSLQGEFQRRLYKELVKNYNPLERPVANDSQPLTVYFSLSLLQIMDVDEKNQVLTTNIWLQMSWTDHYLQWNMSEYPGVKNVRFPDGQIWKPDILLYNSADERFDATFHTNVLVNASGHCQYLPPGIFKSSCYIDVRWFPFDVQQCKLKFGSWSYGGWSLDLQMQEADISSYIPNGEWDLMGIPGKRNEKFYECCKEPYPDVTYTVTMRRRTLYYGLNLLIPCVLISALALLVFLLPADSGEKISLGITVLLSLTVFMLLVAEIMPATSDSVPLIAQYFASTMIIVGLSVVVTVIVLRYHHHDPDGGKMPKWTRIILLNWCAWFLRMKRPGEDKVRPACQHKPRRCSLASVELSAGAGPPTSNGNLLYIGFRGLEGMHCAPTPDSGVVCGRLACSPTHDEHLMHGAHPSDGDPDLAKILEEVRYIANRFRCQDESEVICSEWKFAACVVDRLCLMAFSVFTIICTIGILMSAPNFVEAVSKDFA
T2 sequence (P36544 whole entry): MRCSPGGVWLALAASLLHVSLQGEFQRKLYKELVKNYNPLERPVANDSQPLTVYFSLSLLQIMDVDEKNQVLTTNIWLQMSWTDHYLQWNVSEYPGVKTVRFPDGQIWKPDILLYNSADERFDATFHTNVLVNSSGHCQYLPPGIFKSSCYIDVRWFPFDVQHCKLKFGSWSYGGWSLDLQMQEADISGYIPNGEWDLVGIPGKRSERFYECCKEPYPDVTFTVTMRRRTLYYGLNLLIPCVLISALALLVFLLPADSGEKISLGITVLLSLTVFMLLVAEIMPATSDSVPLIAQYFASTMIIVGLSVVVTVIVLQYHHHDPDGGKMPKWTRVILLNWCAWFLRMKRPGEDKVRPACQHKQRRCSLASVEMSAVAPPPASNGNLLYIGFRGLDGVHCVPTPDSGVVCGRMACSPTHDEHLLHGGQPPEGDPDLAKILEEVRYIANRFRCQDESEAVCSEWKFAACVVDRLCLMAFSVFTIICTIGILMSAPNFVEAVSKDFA
T1 sequence (P30926 whole entry): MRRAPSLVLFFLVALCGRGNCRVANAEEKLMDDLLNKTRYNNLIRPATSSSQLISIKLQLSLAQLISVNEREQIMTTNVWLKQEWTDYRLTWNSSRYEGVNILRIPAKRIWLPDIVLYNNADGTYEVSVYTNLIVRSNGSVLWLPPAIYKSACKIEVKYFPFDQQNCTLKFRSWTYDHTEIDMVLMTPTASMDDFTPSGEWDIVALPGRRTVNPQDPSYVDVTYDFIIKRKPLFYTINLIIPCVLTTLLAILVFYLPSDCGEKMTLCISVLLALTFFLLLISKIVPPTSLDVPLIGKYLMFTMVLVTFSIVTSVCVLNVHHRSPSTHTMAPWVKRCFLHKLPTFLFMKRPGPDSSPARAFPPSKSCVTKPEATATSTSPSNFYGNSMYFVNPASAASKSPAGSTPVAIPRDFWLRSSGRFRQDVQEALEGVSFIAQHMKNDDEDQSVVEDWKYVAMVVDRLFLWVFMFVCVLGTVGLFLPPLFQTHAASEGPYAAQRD
T1 sequence (P32297 whole entry): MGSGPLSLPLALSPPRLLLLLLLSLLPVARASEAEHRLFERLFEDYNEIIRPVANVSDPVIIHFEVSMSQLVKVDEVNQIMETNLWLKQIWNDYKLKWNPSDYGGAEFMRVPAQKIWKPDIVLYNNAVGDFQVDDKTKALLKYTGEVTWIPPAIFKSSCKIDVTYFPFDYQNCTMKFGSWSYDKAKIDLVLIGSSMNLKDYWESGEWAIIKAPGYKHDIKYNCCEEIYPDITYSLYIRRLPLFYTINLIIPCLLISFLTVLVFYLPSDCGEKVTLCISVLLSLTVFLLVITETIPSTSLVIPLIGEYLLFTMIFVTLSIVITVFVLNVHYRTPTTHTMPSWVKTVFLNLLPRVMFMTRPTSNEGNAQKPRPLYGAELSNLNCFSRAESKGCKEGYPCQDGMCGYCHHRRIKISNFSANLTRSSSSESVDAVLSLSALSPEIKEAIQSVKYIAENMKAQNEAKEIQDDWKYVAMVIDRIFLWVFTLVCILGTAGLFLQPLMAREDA
Neuronal acetylcholine receptor; alpha3/beta2, sequence (P17787 whole entry): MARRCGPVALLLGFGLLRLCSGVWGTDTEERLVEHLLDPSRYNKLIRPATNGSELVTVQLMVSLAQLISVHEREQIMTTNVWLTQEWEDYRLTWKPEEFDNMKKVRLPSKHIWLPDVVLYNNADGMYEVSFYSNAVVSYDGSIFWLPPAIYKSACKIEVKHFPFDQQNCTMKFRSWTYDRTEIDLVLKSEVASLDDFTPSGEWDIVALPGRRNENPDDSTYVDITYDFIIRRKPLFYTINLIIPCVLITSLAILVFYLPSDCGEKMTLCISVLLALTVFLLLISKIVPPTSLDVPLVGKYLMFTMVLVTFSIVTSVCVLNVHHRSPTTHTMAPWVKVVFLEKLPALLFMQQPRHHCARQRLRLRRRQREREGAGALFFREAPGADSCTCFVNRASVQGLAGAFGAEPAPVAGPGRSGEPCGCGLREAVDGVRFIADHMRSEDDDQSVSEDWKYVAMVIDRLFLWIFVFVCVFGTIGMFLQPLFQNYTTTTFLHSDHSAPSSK
Neuronal acetylcholine receptor; alpha3/beta2, sequence (P32297 whole entry): as the sequence (P32297 whole entry) above

For the compound `C[C@H](NC(=O)[C@H](Cc1ccccc1)NC(=O)[C@H](CS)NC(=O)[C@@H]1CCCN1C(=O)[C@@H]1CCCN1C(=O)[C@H](Cc1ccc(O)cc1)NC(=O)[C@H](CO)NC(=O)[C@H](CS)NC(=O)[C@H](CS)NC(=O)CN)C(=O)N[C@H](C(=O)N[C@@H](CC(N)=O)C(=O)N[C@@H](CO)C(=O)N[C@@H](CC(=O)O)C(=O)N[C@@H](Cc1ccc(O)cc1)C(=O)N[C@@H](CS)C(N)=O)[C@@H](C)O`, the IC50 in [1] is > 750 nM.
Take `Fc1ccc(C2CC3CCC2N3)cn1` (stereo not drawn): the Rmax amounted to 131% in test [2], 40% in test [3] and 41% in test [4].
In the case of `c1cncc(C2CC3CCC2N3)c1` (stereo not drawn), the Rmax in test [2] is 147%; in [3], 61%; in test [4], 112%.
Consider `C[N+](C)(C)CCO`, for which the Rmax in test [5] was 90% and 100%.
Take `CC(C)C[C@H](NC(=O)[C@H](C)NC(=O)[C@H](CS)NC(=O)[C@@H]1CCCN1C(=O)[C@@H]1CCCN1C(=O)[C@H](CC(C)C)NC(=O)[C@H](CO)NC(=O)[C@H](CS)NC(=O)[C@H](CS)NC(=O)CN)C(=O)N[C@@H](CO)C(=O)N[C@@H](CC(N)=O)C(=O)N1CCC[C@H]1C(=O)N[C@@H](CC(=O)O)C(=O)N[C@@H](Cc1ccc(O)cc1)C(=O)N[C@@H](CS)C(N)=O` (H-GCCSLPPCALSNPDYC-NH2): the IC50 in test [6] and in test [7] was 61 nM each time.
Take `CSCC[C@H](NC(=O)[C@H](CC(N)=O)NC(=O)[C@H](CS)NC(=O)[C@@H]1CCCN1C(=O)[C@H](CCCNC(=N)N)NC(=O)[C@H](CC(=O)O)NC(=O)[C@H](CO)NC(=O)[C@H](CS)NC(=O)[C@H](CS)NC(=O)CN)C(=O)N[C@@H](CC(N)=O)C(=O)N[C@@H](CC(N)=O)C(=O)N1CCC[C@H]1C(=O)N[C@@H](CC(=O)O)C(=O)N[C@@H](Cc1ccc(O)cc1)C(=O)N[C@@H](CS)C(N)=O` (H-GCCSDRPCNMNNPDYC-NH2): the IC50 in test [6], in test [1] and in test [7] was 30 nM in each case.
Consider `Cc1ncccc1OC[C@@H]1CCN1`, for which the Rmax is < 15% in [3] and > 1000% in [5].
As for `O=c1c(I)ccc2n1C[C@@H]1CNC[C@H]2C1`, the results for the Rmax in test [2], in test [4] and in test [5] were 105%, 47% and 107%, respectively.
With H-AGGSDRRCRWR-NH2, inhibition in [6] was half-maximal at 441 nM (IC50).
With `C[C@H](NC(=O)[C@H](Cc1ccccc1)NC(=O)[C@H](CS)NC(=O)[C@@H]1CCCN1C(=O)[C@@H]1CCCN1C(=O)[C@H](Cc1ccc(O)cc1)NC(=O)[C@H](CO)NC(=O)[C@H](CS)NC(=O)[C@H](CS)NC(=O)CN)C(=O)N[C@H](C(=O)N[C@@H](CC(N)=O)C(=O)N[C@@H](CO)C(=O)NCC(=O)N[C@@H](Cc1ccc(O)cc1)C(=O)N[C@@H](CS)C(N)=O)[C@@H](C)O`, in [1], the 50% inhibitory concentration (IC50) was > 750 nM.
`CC(NC(C)(C)C)C(=O)c1cccc(Cl)c1` (stereo not drawn) [BUPROPION]: 50000 nM corresponded to half-maximal inhibition in test [6] (IC50).
For `CC(=O)CCN1C[C@@H]2C[C@H](C1)c1cccc(=O)n1C2`, the Rmax in test [3] was 11%; in test [4] it was 3%; in test [5] it was > 100%.
For `COc1cc2c(cn1)C1NCCC1CC2` (stereo not drawn), the Rmax in test [2] was 44%; in [3] it was 5%; in test [4] it was 8%; in test [8], 22%. In addition, the EC50 in test [9] was > 300000 nM.
As to `CCOc1cncc(/C=C/CCN)c1`, the values for the Rmax in test [2] and in [3] were 16% and 55%, respectively.
Regarding `CN(C)c1ccc(/C=C/C=C2\CCCN=C2c2cccnc2)cc1`, the Rmax in test [4] was found to be 0%; in test [5], 76%.
Take `Clc1ccc(OC[C@@H]2CCN2)cn1`: the Rmax in test [3] was determined as 166%; in test [4], 161%; in [5], 85%.
As to `c1cncc(OC[C@@H]2CCN2)c1`, the Rmax turned out to be 100% in test [3], 185% in test [4] and 100% in [5].
`Clc1ccc(OC[C@H]2CCN2)cn1` displayed an Rmax in test [3] of 116%.
`O=c1c(Br)ccc2n1C[C@@H]1CNC[C@H]2C1`: the Rmax is 70% in [2], 23% in test [4] and 100% in [5].
